In US9855229B2, “Treatment of respiratory disorders using ROR-gamma inhibitors” (Glenmark Pharmaceuticals S.A., priority 2015, dated 2018):

Experiments:
[1] = target: human RORγ receptor (GST-tagged ROR gamma ligand binding domain) (Homo sapiens (Human), UniProt P51449); assay: TR-FRET assay for ROR gamma (Lantha Screen co-activator peptide recruitment); type: biochemical; settings: 10 nM GST-tagged ROR gamma LBD, read-out: IC50 value for inhibiting human RORγ receptor activity
From the text: The compounds described herein were screened for RORγ inhibitor activity using the TR-FRET assay by Lantha Screen as described in JBC 2011, 286, 26: 22707-10; and Drug Metabolism and Disposition 2009, 37, 10: 2069-78
TR-FRET Assay for ROR Gamma:
The assay is based on the principle that binding of the agonist to the RORγ causes a conformational change around helix 12 in the ligand binding domain, resulting in higher affinity for the co-activator peptide. The Fluorescein-D22 co-activator peptide used in the assay is recruited in the absence of a ligand. Binding of the co-activator peptide, causes an increase in the TR-FRET signal while binding of an inhibitor decreases the recruitment of the co-activator peptide, causing a decrease in the TR-FRET signal compared to a control with no test compound. The assay was performed using a two-step procedure, pre-incubation step with the test compound followed by the detection step on addition of the anti-GST tagged terbium (Tb) and fluorescein tagged fluorophores as the acceptor.
Test compounds or reference compounds such as T0901317 (Calbiochem) were dissolved in dimethylsulfoxide (DMSO) to prepare 10.0 mM stock solutions and diluted to the desired concentration. The final concentration of DMSO in the reaction was 4% (v/v). The assay mixture was prepared by mixing 10 nM of the GST-tagged ROR gamma ligand binding domain (LBD) in the assay buffer containing 25 mM HEPES (pH 7.4), 100 mM NaCl, 5 mM DTT and 0.01% BSA with or without the desired concentration of the test compound. The reaction was incubated at 22° C. for 1 hour. The pre-incubation step was terminated by addition of the detection mixture containing 300 nM Fluorescein-D22 co-activator peptide and 10 nM lantha screen Tb-anti GST antibody into the reaction mixture. After shaking for 5 minutes the reaction was further incubated for 1 hour at room temperature and read at 4° C. on an Infinite F500 reader as per the kit instructions (Invitrogen). The inhibition by test compound was calculated based on the TR-FRET ratio of 520/495. The activity was calculated as a percent of the control reaction. IC50 values were calculated from dose response curve by nonlinear regression analysis using GraphPad Prism software.

[2] = test system: anti CD2/3/28 stimulated IL-17 release from COPD lung BAL cells; assay: Ex-vivo IL-17 inhibition from BAL cells of COPD patients; type: cell-based, human; settings: for IC50: average over patients, 72 hrs
Experimental: (§1) Ex vivo effect of ROR γt inhibitors were evaluated on tissue samples of eligible subjects suffering from moderate (Stage II), severe (Stage III) to very severe (Stage IV) COPD classified in accordance with GOLD guidelines.
Flexible fiber optic bronchoscopy was performed on 6 eligible subjects (COPD patients) after written valid consent and lignocaine nebulization. Bronchoscope was wedged into bronchus, pre-warmed sterile saline solution instilled into the lobes and bronchoalveolar lavage was collected in sterile container on ice. The filtrate was passed through the cell strainer for removing the particulate matter and centrifuged at 2000 rpm for 10 mins. The BAL cell pellet obtained was further treated with ACK buffer to lyse out the RBCs. Isolated BAL cells per suspended in 10% FBS containing medium.
(§2) PBMCs or BAL cells were seeded at 1-2×10^5 cells per well onto 96-well flat bottomed plates pre-coated with 2 μg/ml of CD2 antibody (LEAF Purified, Biolegend, #300212) and 10 μg/ml of CD3 antibody (Purified NA/LE, BD, #555329). This was followed by the pre-treatment with compounds (concentrations ranging from 1 nM to 10 uM) and roflumilast for one hour prior to addition of 2 μg/ml of soluble CD28 antibody (LEAF purified, Biolegend, #302914). BAL cells and PBMC were then incubated at 37° C. for 72 hrs in 5% CO2 incubator, after which supematants were collected and stored at −80° C. prior to cytokine analysis.
(§3) Supematants were analysed for IL-17A using either the High Sensitivity ELISA (eBioscience), or the LEGEND MAX™ ELISA kit (Biolegend) according to the manufacturer's instructions.
(§4) IL-17 cytokine concentrations in the supematants were determined from the standard curve plot. Percent inhibition for each set treated with compound was calculated using the formula: Percent inhibition={100−(pg/ml of test compound/pg/ml of control×100)}. IC50 values were calculated from the dose response curves by nonlinear regression analysis using GraphPad Prism Software. Results

[3] = test system: anti CD2/3/28 stimulated IL-17 release from PBMC of COPD patients; assay: Ex-vivo IL-17 inhibition from PBMCs of COPD patients; type: cell-based, human; settings: for IC50: average over patients, 72 hrs
Experimental: as §1
Blood was collected in a heparin tube prior to bronchoscopy. 1:1 diluted blood was layered over Histopaque and centrifuged at 400 g, 30 min, at room temperature. The PBMC layer at the interface was aspirated and washed twice with PBS prior to re-suspension in 10% FBS containing media.
as §2, §3, §4

[4] = test system: cigarette smoke (CS) induced pulmonary inflammation model in male C57BL6/J mice; assay: Cigarette smoke (CS) induced pulmonary inflammation model, 7 days exposure, BAL cell count; type: in vivo; settings: i.n., od, 7 days CS exposure; for CS mediated increase in macrophages in BALf / CS mediated increase in neutrophils in BALf / CS mediated increase in total leukocyte count (TLC) in BALf: BAL 20 hours after last smoke exposure
Experimental: Male C57BL/6 mice were exposed alternately to cigarette smoke (10 Kentucky Research Cigarettes 3R4F) and fresh air for 50 minutes (10 seconds cigarette smoke+5 seconds air for 19 puffs per cigarette) twice daily for 7 days in a whole-body box exposure system (SIU24, ProMech Lab Holding AB, Sweden). Test compounds were sonicated in 1×PBS containing 0.005% tween 80. For localized delivery to lung, animals were administered vehicle or test compounds intranasally (i.n.) (40 μl per animal) under isoflurane anaesthesia, once or twice in a day, 1 hour before smoke exposure. Non-drug-treated air and smoked control animals were given vehicle before exposure to fresh air or smoke as appropriate. Animals were sacrificed 20 hours after the last smoke exposure and subjected to bronchoalveolar lavage (BAL). Total and differential BAL cell count was performed.
BAL was performed at approximately 20 hours after final smoke exposure. Animals were euthanized with an overdose of urethane, trachea was exposed and BAL was performed 4 times using 0.3 ml PBS. All aspirates of BAL were pooled and total numbers of cells were determined using a hemocytometer. BALf was centrifuged. The cell pellet collected after centrifugation was resuspended in 15 μL serum and used for preparation of smears.
For cell differentials, slides were stained with Leishman's stain and a differential cell count of 500 cells based on standard morphology was performed manually.
Total and differential cell count was determined in the BALf. The results were expressed as percent inhibition of leukocytes in BALf. The change in the treatments was statistically evaluated by ANOVA followed by Dunnett's multiple comparisons test.

Sequence of human RORγ receptor (GST-tagged ROR gamma ligand binding domain) (P51449 269-508): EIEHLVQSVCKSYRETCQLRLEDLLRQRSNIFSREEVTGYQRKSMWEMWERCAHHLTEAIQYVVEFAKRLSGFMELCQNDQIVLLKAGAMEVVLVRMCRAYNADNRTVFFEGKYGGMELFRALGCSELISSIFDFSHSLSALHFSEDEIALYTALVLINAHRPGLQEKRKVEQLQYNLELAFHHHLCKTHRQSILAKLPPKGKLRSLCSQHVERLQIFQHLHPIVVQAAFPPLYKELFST

Q: Which IC50 [1] does the source give for `CCS(=O)(=O)c1ccc(CC(=O)Nc2ccc(C#CC(C)(C)Oc3ccc(Cl)c(F)c3)cc2)cc1` [Compound 5] here?
A: 17.4 nM

Q: Which results are given for `CCS(=O)(=O)c1ccc(CC(=O)Nc2ccc(OC(C)(C)c3ncc(Cl)cc3Cl)c(F)c2)cc1` [Compound 11]?
A: IC50 [1]: 25.7 nM; IC50 [2]: 2700 nM; IC50 [3]: 84 nM

Q: `CCS(=O)(=O)c1ccc(CC(=O)Nc2ccc(OC3(c4ccc(Cl)cc4Cl)CCOCC3)cc2)cc1` [Compound 9] was tested. Which IC50 [1] did it give?
A: 18.4 nM

Q: What about the “inhibition of pulmonary inflammation induced by cigarette smoke” value [4] of the same compound?
A: significant inhibition

Q: And the “CS mediated increase in macrophages in BALf” value [4]?
A: significantly prevented

Q: And the “CS mediated increase in neutrophils in BALf” value [4]?
A: significantly prevented

Q: And the “CS mediated increase in total leukocyte count (TLC) in BALf” value [4]?
A: significantly prevented

Q: What about the IC50 ([2]; Homo sapiens) of the same compound?
A: 2390 nM

Q: And the IC50 ([3]; Homo sapiens)?
A: 360 nM

Q: For `CCS(=O)(=O)c1ccc(CC(=O)Nc2ccc(OC(C)(C)c3ccc(Cl)cc3Cl)c(F)c2)cc1` [Compound 4], which IC50 [1] is on record?
A: 5.99 nM

Q: What does the source list for `CCS(=O)(=O)c1ccc(CC(=O)Nc2ccc(OC(C)(C)c3ccc(Cl)cc3Cl)cc2)cc1` [Compound 3]?
A: IC50 [1]: 5.52 nM; inhibition of pulmonary inflammation induced by cigarette smoke [4]: significant inhibition; CS mediated increase in macrophages in BALf [4]: significantly prevented; CS mediated increase in neutrophils in BALf [4]: significantly prevented; CS mediated increase in total leukocyte count (TLC) in BALf [4]: significantly prevented

Q: What does the source list for `CCn1c(C(C)(C)Oc2ccc(F)cc2F)nc2cc(NC(=O)Cc3ccc(S(=O)(=O)CC)cc3)ccc21` [Compound 1]?
A: IC50 [1]: 4.26 nM; IC50 ([2]; Homo sapiens): 350 nM; IC50 ([3]; Homo sapiens): 147 nM

Q: Which results are given for `CCS(=O)(=O)c1ccc(CC(=O)Nc2ccc(OC3(c4ccc(Cl)cc4Cl)CCOCC3)c(F)c2)cc1` [Compound 10]?
A: IC50 [1]: 16.2 nM; IC50 [2]: 720 nM; IC50 [3]: 367 nM

Q: With `O=C(Nc1c(Cl)cncc1Cl)c1ccc(OC(F)F)c(OCC2CC2)c1` [Roflumilast, reference compound] as the compound, how does the inhibition at 10 µM ([2]; Homo sapiens, at 10 μM, read-out: BAL IL-17 percent inhibition) read?
A: 6.75%

Q: And the inhibition at 10 µM ([3]; Homo sapiens, at 10 μM, read-out: PBMC IL-17 percent inhibition)?
A: 20.2%
